Test results: ChEMBL document CHEMBL3885881, “DrugMatrix”

Species on record: Rattus norvegicus
Assay: DrugMatrix - Regimen: Daily Repeat
Type: toxicity, organism-based, Sprague-Dawley
Set-up: regimen Daily Repeat, gender Male, age 6-8 weeks
Conditions: in vivo, sc, route subcutaneous, […]; for ABSOLUTE BASOPHIL / ABSOLUTE EOSINOPHIL / ABSOLUTE LYMPHOCYTE / ABSOLUTE MONOCYTE / ABSOLUTE SEGMENTED NEUTROPHIL / BASOPHIL / EOSINOPHIL / ERYTHROCYTE COUNT / HEMATOCRIT / HEMOGLOBIN / LEUKOCYTE COUNT / LYMPHOCYTE / MEAN CORPUSCULAR HEMOGLOBIN / MEAN CORPUSCULAR HEMOGLOBIN CONCENTRATION / MEAN CORPUSCULAR VOLUME / MONOCYTE / NEUTROPHIL / NUCLEATED RED BLOOD CELLS / PLATELET COUNT: tissue Blood; for ALANINE AMINOTRANSFERASE / ALKALINE PHOSPHATASE / ASPARTATE AMINOTRANSFERASE / BLOOD UREA NITROGEN / CARBON DIOXIDE / CHLORIDE / CHOLESTEROL / CREATINE PHOSPHOKINASE / CREATININE / GLUCOSE / LACTATE DEHYDROGENASE / LIPASE / PHOSPHORUS / POTASSIUM / SODIUM / TOTAL BILIRUBIN / TOTAL PROTEIN / URIC ACID: tissue Plasma
[1] = 0 mg/kg, 72 h, dose level Control, time 3 day
[2] = 0 mg/kg, 120 h, dose level Control, time 5 day
[3] = 17 mg/kg, 72 h, dose level Low, time 3 day

For `CC(C)Cn1cnc2c(N)nc3ccccc3c21` [IMIQUIMOD], the “ABSOLUTE BASOPHIL” value [1] was 0 CELLS/uL, the “ABSOLUTE EOSINOPHIL” value [1] was 42.67 CELLS/uL and the “ABSOLUTE LYMPHOCYTE” value [1] was 10202 CELLS/uL. For the same molecule, the “ABSOLUTE MONOCYTE” value [1] was 261.5 CELLS/uL, the “ABSOLUTE SEGMENTED NEUTROPHIL” value [1] was 2193.83 CELLS/uL and the BASOPHIL [1] was 0%. The EOSINOPHIL [1] was 0.33%, the “ERYTHROCYTE COUNT” value [1] was 5.63 x10E6/uL and the HEMATOCRIT [1] was 35.35%. The HEMOGLOBIN [1] was 13.07 G/DL, the “LEUKOCYTE COUNT” value [1] was 12.7 x10E3/uL and the LYMPHOCYTE [1] was 81.17%. The “MEAN CORPUSCULAR HEMOGLOBIN” value [1] was 23.23 pg, the “MEAN CORPUSCULAR HEMOGLOBIN CONCENTRATION” value [1] was 36.97 G/DL and the “MEAN CORPUSCULAR VOLUME” value [1] was 62.82 fL. The MONOCYTE [1] was 2%, the NEUTROPHIL [1] was 16.5% and the “NUCLEATED RED BLOOD CELLS” value [1] was 0 /100WBC. The “PLATELET COUNT” value [1] was 1180.33 x10E3/uL, the “ALANINE AMINOTRANSFERASE” value [1] was 48.67 u/L and the “ALKALINE PHOSPHATASE” value [1] was 360.67 u/L. The “ASPARTATE AMINOTRANSFERASE” value [1] was 85.5 u/L, the “BLOOD UREA NITROGEN” value [1] was 17.83 mg/dL and the “CARBON DIOXIDE” value [1] was 26.17 mmol/L. For the same molecule, the CHLORIDE [1] was 101.83 MEQ/L, the CHOLESTEROL [1] was 71 mg/dL and the “CREATINE PHOSPHOKINASE” value [1] was 515.17 u/L. The CREATININE [1] was 0.22 mg/dL, the GLUCOSE [1] was 192.5 mg/dL and the “LACTATE DEHYDROGENASE” value [1] was 214.67 u/L. It also gave an LIPASE [1] of 8.5 u/L, a PHOSPHORUS [1] of 12.95 mg/dL and a POTASSIUM [1] of 6.39 MEQ/L. The SODIUM [1] was 142.38 MEQ/L, the “TOTAL BILIRUBIN” value [1] was 0.18 mg/dL and the “TOTAL PROTEIN” value [1] was 5.95 G/DL. The “URIC ACID” value [1] was 1.83 mg/dL, the “ABSOLUTE BASOPHIL” value [2] was 0 CELLS/uL and the “ABSOLUTE EOSINOPHIL” value [2] was 188.5 CELLS/uL. The “ABSOLUTE LYMPHOCYTE” value [2] was 12360.83 CELLS/uL, the “ABSOLUTE MONOCYTE” value [2] was 64.33 CELLS/uL and the “ABSOLUTE SEGMENTED NEUTROPHIL” value [2] was 1986.33 CELLS/uL. The BASOPHIL [2] was 0%, the EOSINOPHIL [2] was 1.33% and the “ERYTHROCYTE COUNT” value [2] was 5.52 x10E6/uL. For the same molecule, the HEMATOCRIT [2] was 35.82%, the HEMOGLOBIN [2] was 13.25 G/DL and the “LEUKOCYTE COUNT” value [2] was 14.6 x10E3/uL. The LYMPHOCYTE [2] was 84.5%, the “MEAN CORPUSCULAR HEMOGLOBIN” value [2] was 24.05 pg and the “MEAN CORPUSCULAR HEMOGLOBIN CONCENTRATION” value [2] was 36.98 G/DL. The “MEAN CORPUSCULAR VOLUME” value [2] was 64.97 fL, the MONOCYTE [2] was 0.5% and the NEUTROPHIL [2] was 13.67%. For the same molecule, the “NUCLEATED RED BLOOD CELLS” value [2] was 0 /100WBC, the “PLATELET COUNT” value [2] was 1297.83 x10E3/uL and the “ALANINE AMINOTRANSFERASE” value [2] was 51.17 u/L. For the same molecule, the “ALKALINE PHOSPHATASE” value [2] was 393.17 u/L, the “ASPARTATE AMINOTRANSFERASE” value [2] was 111 u/L and the “BLOOD UREA NITROGEN” value [2] was 18.17 mg/dL. The “CARBON DIOXIDE” value [2] was 25 mmol/L, the CHLORIDE [2] was 105.17 MEQ/L and the CHOLESTEROL [2] was 65.5 mg/dL. The “CREATINE PHOSPHOKINASE” value [2] was 911.5 u/L, the CREATININE [2] was 0.21 mg/dL and the GLUCOSE [2] was 183 mg/dL. For the same molecule, the “LACTATE DEHYDROGENASE” value [2] was 189 u/L, the LIPASE [2] was 8.33 u/L and the PHOSPHORUS [2] was 12.78 mg/dL. The POTASSIUM [2] was 6.05 MEQ/L, the SODIUM [2] was 144.57 MEQ/L and the “TOTAL BILIRUBIN” value [2] was 0.25 mg/dL. The “TOTAL PROTEIN” value [2] was 5.83 G/DL, the “URIC ACID” value [2] was 1.58 mg/dL and the “ABSOLUTE BASOPHIL” value [3] was 0 CELLS/uL. For the same molecule, the “ABSOLUTE EOSINOPHIL” value [3] was 0 CELLS/uL, the “ABSOLUTE LYMPHOCYTE” value [3] was 10952 CELLS/uL and the “ABSOLUTE MONOCYTE” value [3] was 127.67 CELLS/uL. For the same molecule, the “ABSOLUTE SEGMENTED NEUTROPHIL” value [3] was 1687 CELLS/uL, the BASOPHIL [3] was 0% and the EOSINOPHIL [3] was 0%. For the same molecule, the “ERYTHROCYTE COUNT” value [3] was 5.23 x10E6/uL, the HEMATOCRIT [3] was 32.37% and the HEMOGLOBIN [3] was 11.97 G/DL. For the same molecule, the “LEUKOCYTE COUNT” value [3] was 12.77 x10E3/uL, the LYMPHOCYTE [3] was 86.33% and the “MEAN CORPUSCULAR HEMOGLOBIN” value [3] was 22.9 pg. The “MEAN CORPUSCULAR HEMOGLOBIN CONCENTRATION” value [3] was 37 G/DL, the “MEAN CORPUSCULAR VOLUME” value [3] was 61.93 fL and the MONOCYTE [3] was 1%. The NEUTROPHIL [3] was 12.67%, the “NUCLEATED RED BLOOD CELLS” value [3] was 0 /100WBC and the “PLATELET COUNT” value [3] was 1138.33 x10E3/uL. The “ALANINE AMINOTRANSFERASE” value [3] was 57.67 u/L, the “ALKALINE PHOSPHATASE” value [3] was 333.67 u/L and the “ASPARTATE AMINOTRANSFERASE” value [3] was 91.67 u/L. The “BLOOD UREA NITROGEN” value [3] was 17.33 mg/dL, the “CARBON DIOXIDE” value [3] was 27 mmol/L and the CHLORIDE [3] was 104.67 MEQ/L. For the same molecule, the CHOLESTEROL [3] was 71 mg/dL, the “CREATINE PHOSPHOKINASE” value [3] was 483 u/L and the CREATININE [3] was 0.24 mg/dL. For the same molecule, the GLUCOSE [3] was 177 mg/dL, the “LACTATE DEHYDROGENASE” value [3] was 117.33 u/L and the LIPASE [3] was 7.67 u/L. The PHOSPHORUS [3] was 13 mg/dL, the POTASSIUM [3] was 6.18 MEQ/L and the SODIUM [3] was 146.27 MEQ/L. For the same molecule, the “TOTAL BILIRUBIN” value [3] was 0.17 mg/dL, the “TOTAL PROTEIN” value [3] was 5.53 G/DL and the “URIC ACID” value [3] was 1.6 mg/dL.
